Measurements: ChEMBL document CHEMBL1201862, “PubChem BioAssay data set” (2004)
Active and inactive are the calls of the source.

What was measured:
[1] = biological target: T1, Dual specificity protein phosphatase 6 (Rattus norvegicus, UniProt Q64346); test: MKP-3 phosphatase inhibitors, primary screen, biochemical, rat enzyme, in vitro (AID 425)
T1 sequence (Q64346 whole entry): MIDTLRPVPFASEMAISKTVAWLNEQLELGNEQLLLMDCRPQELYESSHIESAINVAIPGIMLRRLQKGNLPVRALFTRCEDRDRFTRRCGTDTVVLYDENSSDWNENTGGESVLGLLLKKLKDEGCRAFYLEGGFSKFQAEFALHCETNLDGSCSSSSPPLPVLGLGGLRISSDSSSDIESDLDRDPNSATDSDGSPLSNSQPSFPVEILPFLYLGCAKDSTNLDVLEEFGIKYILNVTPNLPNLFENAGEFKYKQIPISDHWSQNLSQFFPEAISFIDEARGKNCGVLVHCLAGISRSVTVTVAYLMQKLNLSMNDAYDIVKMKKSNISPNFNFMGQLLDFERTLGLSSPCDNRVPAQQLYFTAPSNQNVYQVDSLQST

[2] = biological target: Intestinal-type alkaline phosphatase (Homo sapiens, UniProt P09923); test: activation of human intestinal alkaline phosphatase – biochemical, dose response (AID 488873); assay type: functional
Sequence of Intestinal-type alkaline phosphatase (Homo sapiens, UniProt P09923) (P09923 whole entry): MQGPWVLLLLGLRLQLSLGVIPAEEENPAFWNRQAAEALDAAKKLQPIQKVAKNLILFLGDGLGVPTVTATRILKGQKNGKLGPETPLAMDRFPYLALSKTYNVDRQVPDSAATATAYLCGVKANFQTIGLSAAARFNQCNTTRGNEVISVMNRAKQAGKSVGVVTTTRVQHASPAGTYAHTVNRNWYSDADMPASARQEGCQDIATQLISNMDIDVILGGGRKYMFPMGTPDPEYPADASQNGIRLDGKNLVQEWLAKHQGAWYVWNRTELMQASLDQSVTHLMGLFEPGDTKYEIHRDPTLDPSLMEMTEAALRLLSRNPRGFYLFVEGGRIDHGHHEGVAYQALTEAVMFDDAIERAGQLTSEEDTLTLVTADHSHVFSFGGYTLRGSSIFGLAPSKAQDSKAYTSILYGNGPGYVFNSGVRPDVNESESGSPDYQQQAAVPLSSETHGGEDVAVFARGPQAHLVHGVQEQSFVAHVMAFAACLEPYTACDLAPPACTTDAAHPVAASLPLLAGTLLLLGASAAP

[3] = biological target: Beta-adrenergic receptor kinase 1 (Homo sapiens, UniProt P25098); test: aptamer displacement from bead-bound GRK2 – biochemical, cherry pick 1, bead flow cytometry, dose response (AID 504500)
Sequence of Beta-adrenergic receptor kinase 1 (P25098 whole entry): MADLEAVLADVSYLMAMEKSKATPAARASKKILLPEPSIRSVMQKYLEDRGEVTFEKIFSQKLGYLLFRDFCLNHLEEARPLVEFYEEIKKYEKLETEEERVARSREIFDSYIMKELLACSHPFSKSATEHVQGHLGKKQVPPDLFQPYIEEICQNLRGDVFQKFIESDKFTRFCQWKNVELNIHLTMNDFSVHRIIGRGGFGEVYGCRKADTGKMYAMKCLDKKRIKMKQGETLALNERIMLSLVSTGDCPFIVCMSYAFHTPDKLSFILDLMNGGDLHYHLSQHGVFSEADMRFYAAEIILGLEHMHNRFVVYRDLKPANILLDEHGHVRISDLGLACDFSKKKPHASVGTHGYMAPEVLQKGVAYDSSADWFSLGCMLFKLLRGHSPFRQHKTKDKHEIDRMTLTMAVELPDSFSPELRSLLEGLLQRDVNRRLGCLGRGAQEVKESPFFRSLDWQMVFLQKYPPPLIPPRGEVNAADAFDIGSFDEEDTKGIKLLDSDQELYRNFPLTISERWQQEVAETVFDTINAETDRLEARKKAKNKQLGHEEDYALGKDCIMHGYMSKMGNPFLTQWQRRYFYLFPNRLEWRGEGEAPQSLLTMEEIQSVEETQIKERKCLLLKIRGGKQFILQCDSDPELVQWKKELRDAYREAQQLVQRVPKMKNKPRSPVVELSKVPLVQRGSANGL

[4] = biological target: Intestinal-type alkaline phosphatase (Mus musculus, UniProt P24822); test: mouse intestinal alkaline phosphatase activators, dose response, biochemical, luminescence, uHTS hits (AID 488783); assay type: functional
Sequence of Intestinal-type alkaline phosphatase (Mus musculus, UniProt P24822) (P24822 whole entry): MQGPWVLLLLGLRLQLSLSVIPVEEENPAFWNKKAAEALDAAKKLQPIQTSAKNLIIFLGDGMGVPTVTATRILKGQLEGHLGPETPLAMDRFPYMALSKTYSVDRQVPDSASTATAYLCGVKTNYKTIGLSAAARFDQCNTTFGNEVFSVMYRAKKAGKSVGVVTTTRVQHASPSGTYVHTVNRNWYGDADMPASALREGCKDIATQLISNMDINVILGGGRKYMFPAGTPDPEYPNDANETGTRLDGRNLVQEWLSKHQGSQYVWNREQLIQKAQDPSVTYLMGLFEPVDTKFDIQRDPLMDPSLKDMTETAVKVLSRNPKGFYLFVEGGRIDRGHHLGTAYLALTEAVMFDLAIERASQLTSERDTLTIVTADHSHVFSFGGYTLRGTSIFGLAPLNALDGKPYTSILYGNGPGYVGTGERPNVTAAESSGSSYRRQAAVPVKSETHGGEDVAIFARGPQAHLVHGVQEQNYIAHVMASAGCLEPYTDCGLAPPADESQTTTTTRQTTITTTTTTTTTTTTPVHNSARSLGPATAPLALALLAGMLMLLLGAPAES

[5] = biological target: T2, Alkaline phosphatase, tissue-nonspecific isozyme (Homo sapiens, UniProt P05186); test: TNAP enzyme activators, dose response, selectivity assay for mouse IAP activator project, biochemical, TNAP isozyme, mouse IAP uHTS hits (AID 488880); assay type: functional
T2 sequence (P05186 whole entry): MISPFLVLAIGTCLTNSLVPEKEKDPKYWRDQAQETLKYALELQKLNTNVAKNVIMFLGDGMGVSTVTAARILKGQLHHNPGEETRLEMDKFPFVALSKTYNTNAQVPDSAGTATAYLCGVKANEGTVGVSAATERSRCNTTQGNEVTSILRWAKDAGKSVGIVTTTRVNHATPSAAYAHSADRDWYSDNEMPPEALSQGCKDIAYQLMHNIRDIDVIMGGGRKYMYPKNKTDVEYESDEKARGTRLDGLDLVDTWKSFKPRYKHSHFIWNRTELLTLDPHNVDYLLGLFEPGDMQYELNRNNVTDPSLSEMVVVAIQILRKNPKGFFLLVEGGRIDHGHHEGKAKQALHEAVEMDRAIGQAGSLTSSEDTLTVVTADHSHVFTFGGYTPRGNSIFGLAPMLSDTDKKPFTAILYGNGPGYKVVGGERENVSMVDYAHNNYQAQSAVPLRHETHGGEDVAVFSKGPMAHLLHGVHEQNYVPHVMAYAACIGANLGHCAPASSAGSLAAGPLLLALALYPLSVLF

[6] = Luminescence Cell-Based Dose Response HTS to Identify Activators of Luciferase Translation or Activity in H4 […] Cells. [Related pubchem assays: 1829 (Project Summary), 1814 (Primary HTS)]; assay type: functional
[7] = tested on: H4; test: Luminescence Cell-Based Dose Response HTS to Identify Activators of 5'UTR Stem-Loop Driven Prion Protein mRNA Translation in H4 Neuroglioblastoma Cells. [Related pubchem assays: 1829 (Project Summary), 1814 (Primary HTS)]; assay type: functional; conditions: Homo sapiens
[8] = tested on: HeLa; test: HeLa cell cytotoxicity, dose response, cytotoxicity control for MITF activator project, CellTiter-Glo luminescence, cherry-pick samples (AID 540259); assay type: functional, cell-based; conditions: Homo sapiens
[9] = biological target: Voltage-gated inwardly rectifying potassium channel KCNH2 (Homo sapiens, UniProt Q12809); conditions: Potency;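 also: confirmatory quantitative high-throughput screen measuring inhibition of hERG channel activity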
Sequence of Voltage-gated inwardly rectifying potassium channel KCNH2 (Q12809 whole entry): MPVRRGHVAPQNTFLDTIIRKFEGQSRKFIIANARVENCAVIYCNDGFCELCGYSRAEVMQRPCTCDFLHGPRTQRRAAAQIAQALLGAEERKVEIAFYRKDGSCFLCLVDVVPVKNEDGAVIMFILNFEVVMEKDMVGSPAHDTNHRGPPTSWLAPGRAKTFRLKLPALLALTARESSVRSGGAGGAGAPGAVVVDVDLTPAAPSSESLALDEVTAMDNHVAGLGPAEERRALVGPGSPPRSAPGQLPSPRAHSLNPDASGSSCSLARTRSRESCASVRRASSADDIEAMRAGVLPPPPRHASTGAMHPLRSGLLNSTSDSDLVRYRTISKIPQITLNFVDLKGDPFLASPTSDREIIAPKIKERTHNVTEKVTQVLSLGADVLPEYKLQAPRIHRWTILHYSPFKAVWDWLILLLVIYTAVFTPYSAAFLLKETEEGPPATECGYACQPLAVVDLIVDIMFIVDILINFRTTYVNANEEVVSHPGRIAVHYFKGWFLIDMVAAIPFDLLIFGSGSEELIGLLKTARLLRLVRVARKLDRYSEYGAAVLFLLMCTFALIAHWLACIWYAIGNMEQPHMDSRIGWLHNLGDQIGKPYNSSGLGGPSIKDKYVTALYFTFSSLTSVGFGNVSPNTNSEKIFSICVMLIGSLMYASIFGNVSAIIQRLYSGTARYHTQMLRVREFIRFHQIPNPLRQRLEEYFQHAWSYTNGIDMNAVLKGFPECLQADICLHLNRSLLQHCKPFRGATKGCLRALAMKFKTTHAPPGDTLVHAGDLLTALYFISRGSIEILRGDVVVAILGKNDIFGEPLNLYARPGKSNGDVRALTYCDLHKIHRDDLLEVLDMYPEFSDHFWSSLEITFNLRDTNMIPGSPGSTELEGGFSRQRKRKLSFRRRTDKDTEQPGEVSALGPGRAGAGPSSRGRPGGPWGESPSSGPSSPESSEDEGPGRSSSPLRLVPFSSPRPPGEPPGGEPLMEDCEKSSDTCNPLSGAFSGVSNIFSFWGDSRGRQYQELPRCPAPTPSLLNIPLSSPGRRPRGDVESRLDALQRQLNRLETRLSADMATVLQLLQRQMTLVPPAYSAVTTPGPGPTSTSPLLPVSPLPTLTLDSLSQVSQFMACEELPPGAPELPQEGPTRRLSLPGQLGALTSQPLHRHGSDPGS

[10] = biological target: Phospholipase D1 (Homo sapiens, UniProt Q13393); test: PLD1 inhibitor potency in cells, dose response (AID 602151); assay type: functional;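 also: cellular PLD1 assay in Calu-1 cells stimulated with PMA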
Sequence of Phospholipase D1 (Q13393 whole entry): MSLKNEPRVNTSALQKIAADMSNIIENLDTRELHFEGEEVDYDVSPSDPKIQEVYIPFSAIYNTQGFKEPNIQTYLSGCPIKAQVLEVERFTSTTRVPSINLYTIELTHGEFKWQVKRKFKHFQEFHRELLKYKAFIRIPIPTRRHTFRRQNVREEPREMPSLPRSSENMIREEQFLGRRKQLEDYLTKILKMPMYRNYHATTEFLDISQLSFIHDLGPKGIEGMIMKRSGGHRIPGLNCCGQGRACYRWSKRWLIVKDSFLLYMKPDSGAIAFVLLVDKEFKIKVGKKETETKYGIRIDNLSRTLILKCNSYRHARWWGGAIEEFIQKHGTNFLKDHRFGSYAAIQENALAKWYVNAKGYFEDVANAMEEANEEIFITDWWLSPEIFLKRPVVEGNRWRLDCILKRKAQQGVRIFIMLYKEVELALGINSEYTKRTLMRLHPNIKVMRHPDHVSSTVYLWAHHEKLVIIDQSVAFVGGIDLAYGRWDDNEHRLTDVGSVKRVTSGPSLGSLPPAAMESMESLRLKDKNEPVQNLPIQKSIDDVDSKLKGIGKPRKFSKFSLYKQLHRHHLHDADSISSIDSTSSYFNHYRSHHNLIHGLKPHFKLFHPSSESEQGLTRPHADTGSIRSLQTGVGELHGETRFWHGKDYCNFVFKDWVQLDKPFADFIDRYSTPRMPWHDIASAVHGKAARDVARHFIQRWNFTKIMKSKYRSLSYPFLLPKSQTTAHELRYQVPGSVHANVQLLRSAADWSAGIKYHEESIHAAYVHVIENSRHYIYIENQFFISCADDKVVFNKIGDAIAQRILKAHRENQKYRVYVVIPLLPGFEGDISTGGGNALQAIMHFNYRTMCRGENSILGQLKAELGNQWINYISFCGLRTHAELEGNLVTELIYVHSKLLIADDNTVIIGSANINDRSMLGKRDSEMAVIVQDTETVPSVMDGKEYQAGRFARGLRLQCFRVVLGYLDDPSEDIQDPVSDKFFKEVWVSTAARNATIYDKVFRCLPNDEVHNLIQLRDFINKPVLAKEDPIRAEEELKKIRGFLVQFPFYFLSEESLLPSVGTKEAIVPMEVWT

[11] = biological target: Phospholipase D2 (Homo sapiens, UniProt O14939); test: PLD2 inhibitor potency in cells, dose response (AID 602147); assay type: functional;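 also: cellular assay in HEK293 cells overexpressing GFP-tagged PLD2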
Sequence of Phospholipase D2 (O14939 whole entry): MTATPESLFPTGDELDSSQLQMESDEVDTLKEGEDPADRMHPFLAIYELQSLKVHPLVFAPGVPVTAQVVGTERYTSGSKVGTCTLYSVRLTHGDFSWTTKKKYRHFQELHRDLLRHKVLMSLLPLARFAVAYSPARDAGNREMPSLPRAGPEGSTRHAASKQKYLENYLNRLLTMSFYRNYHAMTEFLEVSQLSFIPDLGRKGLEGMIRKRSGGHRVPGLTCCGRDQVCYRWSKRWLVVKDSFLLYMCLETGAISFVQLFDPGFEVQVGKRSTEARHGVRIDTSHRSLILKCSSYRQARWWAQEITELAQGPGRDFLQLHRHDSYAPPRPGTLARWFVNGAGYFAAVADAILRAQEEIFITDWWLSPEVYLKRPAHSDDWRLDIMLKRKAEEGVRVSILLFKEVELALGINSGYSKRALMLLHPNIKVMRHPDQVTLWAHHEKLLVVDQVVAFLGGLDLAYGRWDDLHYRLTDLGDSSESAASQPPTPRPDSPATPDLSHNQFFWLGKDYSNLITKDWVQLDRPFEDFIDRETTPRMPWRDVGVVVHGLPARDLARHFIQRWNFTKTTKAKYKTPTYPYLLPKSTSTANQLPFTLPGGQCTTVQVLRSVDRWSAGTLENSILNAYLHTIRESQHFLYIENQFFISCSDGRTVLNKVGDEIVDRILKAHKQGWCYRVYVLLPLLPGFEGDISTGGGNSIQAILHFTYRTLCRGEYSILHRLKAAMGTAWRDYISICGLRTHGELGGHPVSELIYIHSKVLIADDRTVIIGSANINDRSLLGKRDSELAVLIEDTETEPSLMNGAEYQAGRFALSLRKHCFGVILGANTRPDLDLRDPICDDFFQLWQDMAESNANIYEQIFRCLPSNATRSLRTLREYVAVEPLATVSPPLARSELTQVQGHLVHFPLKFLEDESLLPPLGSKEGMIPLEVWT

[12] = tested on: HEK293; test: cytotoxicity in HEK293T NF-kB-Luc cells, SAR follow-up, cytotoxicity control for NF-kB activator project, cell-based, resazurin fluorescence (AID 493251); assay type: functional; conditions: Homo sapiens
[13] = tested on: Jurkat; test: SAR Analysis of small molecule inhibitors of T-cell specific antigen receptor-induced NF-kB activation in a Jurkat cell line using a luminescence assay - Set 2. [Related pubchem assays (depositor defined):AID435003, AID435012, AID465]; assay type: functional, cell-based; conditions: Homo sapiens
[14] = tested on: HEK293; test: SAR Analysis of small molecule inhibitors of T-cell specific antigen receptor-induced NF-kB activation in a HEK-293T cell line using a luminescence assay - Set 2. [Related pubchem assays (depositor defined):AID435003, AID435012, AID489026]; assay type: functional, cell-based; conditions: Homo sapiens

CCOC(=O)C(C)Sc1nc2c(c(=O)[nH]c(=O)n2C)n1C/C=C(/C)Cl (centres undefined)
IC50 [1]: > 10 µM (not active)
EC50 [2]: 74.2 µM (active)
EC50 [3]: 22.1 µM (inactive)
EC50 [4]: 69.8 µM (active)
EC50 [5]: 66.9 µM (active)

CCCc1cc2c(=O)c(-c3ccccn3)coc2cc1OC
EC50 [6]: 0.182 µM (active)
EC50 [7]: > 120 µM (not active)
AC50 [8]: 73.5 µM (active)

CN(C)CCC(c1ccccc1)c1ccccn1 (centres undefined)
AC50 [9]: 35.5 µM (inconclusive)

CN(CCN1CCC2(CC1)C(=O)NCN2c1ccccc1)C(=O)c1ccc2ccccc2c1
IC50 [10]: 20 µM (inactive)
IC50 [11]: 20 µM (active)

Cc1ccc(C(NC(=O)C2CCCCC2)c2ccc3cccnc3c2O)cc1 (centres undefined)
IC50 [12]: 21 µM (inactive)
IC50 [13]: 2.62 µM (active)
IC50 [14]: 4.93 µM (active)
